Legend:
[1] = target: Serine/threonine-protein kinase MARK1 (Homo sapiens) (UniProt Q9P0L2); experiment: Selectivity interaction (KinomeScan (DiscoverX)) EUB0000666a MARK1; conditions: at 10 µM
[2] = target: Fibroblast growth factor receptor 1 (Homo sapiens, UniProt P11362); experiment: Selectivity interaction (KinomeScan (DiscoverX)) EUB0001079a FGFR1; conditions: at 1 µM
[3] = target: T1, Tyrosine-protein kinase receptor TYRO3 (Homo sapiens) (UniProt Q06418); conditions: at 10 µM
T1 sequence (whole entry): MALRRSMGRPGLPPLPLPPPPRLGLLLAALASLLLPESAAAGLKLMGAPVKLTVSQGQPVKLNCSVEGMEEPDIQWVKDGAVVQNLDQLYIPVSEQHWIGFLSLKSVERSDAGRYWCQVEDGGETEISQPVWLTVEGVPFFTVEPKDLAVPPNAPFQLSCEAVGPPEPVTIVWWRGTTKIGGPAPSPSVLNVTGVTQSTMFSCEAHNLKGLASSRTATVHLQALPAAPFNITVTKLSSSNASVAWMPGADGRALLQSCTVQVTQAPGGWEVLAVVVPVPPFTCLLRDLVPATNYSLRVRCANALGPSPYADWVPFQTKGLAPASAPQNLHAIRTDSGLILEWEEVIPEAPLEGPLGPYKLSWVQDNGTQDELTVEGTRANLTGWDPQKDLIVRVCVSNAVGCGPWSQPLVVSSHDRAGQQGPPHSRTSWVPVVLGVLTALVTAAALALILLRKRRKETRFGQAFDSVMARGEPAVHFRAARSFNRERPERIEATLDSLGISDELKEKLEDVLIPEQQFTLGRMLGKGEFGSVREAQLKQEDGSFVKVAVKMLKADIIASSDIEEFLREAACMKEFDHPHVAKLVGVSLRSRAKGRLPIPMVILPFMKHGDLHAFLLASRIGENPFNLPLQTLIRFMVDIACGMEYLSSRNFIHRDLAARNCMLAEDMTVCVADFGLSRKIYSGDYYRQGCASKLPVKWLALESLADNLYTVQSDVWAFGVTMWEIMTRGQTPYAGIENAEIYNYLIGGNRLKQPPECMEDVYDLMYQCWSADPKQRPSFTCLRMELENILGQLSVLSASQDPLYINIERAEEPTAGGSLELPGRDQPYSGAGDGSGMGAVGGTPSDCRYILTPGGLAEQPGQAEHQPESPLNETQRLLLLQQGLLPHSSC

[4] = target: Bromodomain-containing protein 9 (Homo sapiens) (UniProt Q9H8M2); experiment: Selectivity interaction (Bromodomain panel (DSF asssay)) EUB0000270b BRD9
Sequence of Bromodomain-containing protein 9 (Homo sapiens) (Q9H8M2 whole entry): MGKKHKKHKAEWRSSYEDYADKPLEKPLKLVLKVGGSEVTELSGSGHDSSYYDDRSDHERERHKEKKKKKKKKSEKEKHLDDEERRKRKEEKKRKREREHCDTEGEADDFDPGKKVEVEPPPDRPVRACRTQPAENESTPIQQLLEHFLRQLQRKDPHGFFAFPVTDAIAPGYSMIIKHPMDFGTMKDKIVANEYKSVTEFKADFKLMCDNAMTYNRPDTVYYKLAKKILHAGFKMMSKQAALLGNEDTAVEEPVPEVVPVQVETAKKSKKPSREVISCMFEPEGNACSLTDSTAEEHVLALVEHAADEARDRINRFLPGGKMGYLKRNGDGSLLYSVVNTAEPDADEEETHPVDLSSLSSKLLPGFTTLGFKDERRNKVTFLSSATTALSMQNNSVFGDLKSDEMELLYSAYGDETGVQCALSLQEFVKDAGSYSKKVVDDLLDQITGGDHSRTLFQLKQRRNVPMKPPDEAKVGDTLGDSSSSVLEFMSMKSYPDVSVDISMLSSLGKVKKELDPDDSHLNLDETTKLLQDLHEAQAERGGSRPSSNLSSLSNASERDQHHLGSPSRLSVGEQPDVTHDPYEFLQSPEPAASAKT

[5] = target: T2, Serine/threonine-protein kinase Sgk3 (Homo sapiens) (UniProt Q96BR1); experiment: Selectivity interaction (ActivX KiNativ screen (kinase selectivity in THP-1 cell lysates)) EUB0000639a SGK3; format: subcellular; conditions: lysate, at 5 µM
T2 sequence (whole entry): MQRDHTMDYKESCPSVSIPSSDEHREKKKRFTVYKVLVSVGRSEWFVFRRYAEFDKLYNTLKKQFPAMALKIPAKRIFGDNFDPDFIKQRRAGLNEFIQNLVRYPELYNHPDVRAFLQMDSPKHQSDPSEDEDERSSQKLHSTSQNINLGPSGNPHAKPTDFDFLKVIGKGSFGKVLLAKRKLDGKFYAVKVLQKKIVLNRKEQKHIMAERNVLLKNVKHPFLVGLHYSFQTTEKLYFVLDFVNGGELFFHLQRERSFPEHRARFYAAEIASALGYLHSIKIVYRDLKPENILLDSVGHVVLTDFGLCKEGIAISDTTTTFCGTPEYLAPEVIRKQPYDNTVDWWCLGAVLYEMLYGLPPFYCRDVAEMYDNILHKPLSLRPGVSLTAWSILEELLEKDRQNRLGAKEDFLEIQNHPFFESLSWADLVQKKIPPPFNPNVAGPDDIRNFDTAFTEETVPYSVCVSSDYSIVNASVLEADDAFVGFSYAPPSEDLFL

[6] = target: Mitogen-activated protein kinase kinase kinase 4 (Homo sapiens) (UniProt Q9Y6R4); experiment: Selectivity interaction (Ambit KINOMEscan and KiNATiv profiling in Jurkat cells) EUB0000090b MAP3K4; format: cell-based; conditions: at 1 µM
Sequence of Mitogen-activated protein kinase kinase kinase 4 (Homo sapiens) (Q9Y6R4 whole entry): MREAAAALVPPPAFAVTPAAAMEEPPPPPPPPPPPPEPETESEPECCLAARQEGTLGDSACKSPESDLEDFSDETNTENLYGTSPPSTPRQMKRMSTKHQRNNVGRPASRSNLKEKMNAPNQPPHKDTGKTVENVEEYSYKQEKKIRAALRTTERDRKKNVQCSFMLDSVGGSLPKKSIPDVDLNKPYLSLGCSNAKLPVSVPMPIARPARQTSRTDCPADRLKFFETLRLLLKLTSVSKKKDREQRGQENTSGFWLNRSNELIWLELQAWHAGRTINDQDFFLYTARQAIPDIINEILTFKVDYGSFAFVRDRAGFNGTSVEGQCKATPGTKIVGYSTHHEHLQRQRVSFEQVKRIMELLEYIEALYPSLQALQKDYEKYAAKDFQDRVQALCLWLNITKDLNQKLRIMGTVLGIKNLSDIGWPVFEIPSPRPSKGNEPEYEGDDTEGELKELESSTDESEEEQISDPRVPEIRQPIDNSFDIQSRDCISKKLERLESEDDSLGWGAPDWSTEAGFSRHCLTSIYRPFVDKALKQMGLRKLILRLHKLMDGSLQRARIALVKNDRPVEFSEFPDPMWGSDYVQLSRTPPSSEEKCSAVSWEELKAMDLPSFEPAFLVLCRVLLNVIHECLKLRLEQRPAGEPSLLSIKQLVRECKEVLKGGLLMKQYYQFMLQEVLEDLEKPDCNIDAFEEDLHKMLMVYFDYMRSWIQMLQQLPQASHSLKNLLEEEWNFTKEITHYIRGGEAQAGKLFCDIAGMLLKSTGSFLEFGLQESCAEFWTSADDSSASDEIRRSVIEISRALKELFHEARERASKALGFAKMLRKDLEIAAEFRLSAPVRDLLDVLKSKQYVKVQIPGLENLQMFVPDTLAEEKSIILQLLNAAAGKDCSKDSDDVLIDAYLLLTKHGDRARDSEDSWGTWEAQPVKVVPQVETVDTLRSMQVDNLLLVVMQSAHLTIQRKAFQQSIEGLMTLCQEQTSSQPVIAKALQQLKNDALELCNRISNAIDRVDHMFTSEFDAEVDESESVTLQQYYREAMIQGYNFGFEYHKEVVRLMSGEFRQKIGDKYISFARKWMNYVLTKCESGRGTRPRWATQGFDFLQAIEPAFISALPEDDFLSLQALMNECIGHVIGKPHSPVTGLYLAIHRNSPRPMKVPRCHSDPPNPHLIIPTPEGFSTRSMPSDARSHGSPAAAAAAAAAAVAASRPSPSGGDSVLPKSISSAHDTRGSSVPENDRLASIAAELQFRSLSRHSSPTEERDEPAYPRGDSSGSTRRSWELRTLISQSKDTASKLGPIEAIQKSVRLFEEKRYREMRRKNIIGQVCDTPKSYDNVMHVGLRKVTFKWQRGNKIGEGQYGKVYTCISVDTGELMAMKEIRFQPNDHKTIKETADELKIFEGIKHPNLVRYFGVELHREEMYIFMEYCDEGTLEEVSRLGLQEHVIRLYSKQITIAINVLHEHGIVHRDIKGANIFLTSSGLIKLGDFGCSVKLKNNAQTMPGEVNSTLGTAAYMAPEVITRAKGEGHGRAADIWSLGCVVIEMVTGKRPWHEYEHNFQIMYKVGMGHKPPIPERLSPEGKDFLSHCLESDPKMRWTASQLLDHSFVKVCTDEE

[7] = target: Serine/threonine-protein kinase WNK1 (Homo sapiens) (UniProt Q9H4A3); experiment: Selectivity interaction (KinomeScan (DiscoverX)) EUB0000607a WNK1; conditions: at 10 µM
[8] = target: T3, Phosphatidylinositol 4,5-bisphosphate 3-kinase catalytic subunit delta isoform (Homo sapiens) (UniProt O00329); experiment: Selectivity interaction (Adapta Assay) EUB0001632a PIK3CD; conditions: at 10 µM
T3 sequence (whole entry): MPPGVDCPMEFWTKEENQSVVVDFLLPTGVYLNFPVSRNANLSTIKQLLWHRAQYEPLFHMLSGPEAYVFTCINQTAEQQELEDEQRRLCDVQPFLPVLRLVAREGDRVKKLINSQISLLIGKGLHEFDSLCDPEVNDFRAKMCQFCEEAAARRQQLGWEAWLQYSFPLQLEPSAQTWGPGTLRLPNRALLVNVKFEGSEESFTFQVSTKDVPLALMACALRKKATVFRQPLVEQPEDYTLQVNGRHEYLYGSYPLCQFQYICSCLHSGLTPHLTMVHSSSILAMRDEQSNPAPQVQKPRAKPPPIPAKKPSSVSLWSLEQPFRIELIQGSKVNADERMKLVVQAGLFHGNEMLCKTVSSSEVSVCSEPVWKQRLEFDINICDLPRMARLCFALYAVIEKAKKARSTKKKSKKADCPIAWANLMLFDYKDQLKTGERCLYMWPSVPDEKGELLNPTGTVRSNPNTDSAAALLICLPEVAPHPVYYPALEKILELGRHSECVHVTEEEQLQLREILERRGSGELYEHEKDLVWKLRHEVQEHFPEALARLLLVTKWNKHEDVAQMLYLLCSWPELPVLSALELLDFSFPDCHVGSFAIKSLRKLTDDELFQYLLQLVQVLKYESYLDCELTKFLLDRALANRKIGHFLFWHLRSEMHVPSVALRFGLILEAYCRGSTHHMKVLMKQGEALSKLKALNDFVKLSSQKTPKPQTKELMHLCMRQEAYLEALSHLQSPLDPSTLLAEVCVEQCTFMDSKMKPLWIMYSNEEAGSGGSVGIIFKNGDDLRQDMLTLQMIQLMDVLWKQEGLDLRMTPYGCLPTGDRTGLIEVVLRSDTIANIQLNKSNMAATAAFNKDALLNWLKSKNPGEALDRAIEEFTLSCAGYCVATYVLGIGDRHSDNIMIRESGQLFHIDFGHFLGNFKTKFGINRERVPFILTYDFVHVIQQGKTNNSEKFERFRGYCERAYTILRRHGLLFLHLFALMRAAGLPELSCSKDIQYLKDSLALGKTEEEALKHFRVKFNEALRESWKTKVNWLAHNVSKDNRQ

Sequence of Fibroblast growth factor receptor 1 (P11362 22-822 limits assumed): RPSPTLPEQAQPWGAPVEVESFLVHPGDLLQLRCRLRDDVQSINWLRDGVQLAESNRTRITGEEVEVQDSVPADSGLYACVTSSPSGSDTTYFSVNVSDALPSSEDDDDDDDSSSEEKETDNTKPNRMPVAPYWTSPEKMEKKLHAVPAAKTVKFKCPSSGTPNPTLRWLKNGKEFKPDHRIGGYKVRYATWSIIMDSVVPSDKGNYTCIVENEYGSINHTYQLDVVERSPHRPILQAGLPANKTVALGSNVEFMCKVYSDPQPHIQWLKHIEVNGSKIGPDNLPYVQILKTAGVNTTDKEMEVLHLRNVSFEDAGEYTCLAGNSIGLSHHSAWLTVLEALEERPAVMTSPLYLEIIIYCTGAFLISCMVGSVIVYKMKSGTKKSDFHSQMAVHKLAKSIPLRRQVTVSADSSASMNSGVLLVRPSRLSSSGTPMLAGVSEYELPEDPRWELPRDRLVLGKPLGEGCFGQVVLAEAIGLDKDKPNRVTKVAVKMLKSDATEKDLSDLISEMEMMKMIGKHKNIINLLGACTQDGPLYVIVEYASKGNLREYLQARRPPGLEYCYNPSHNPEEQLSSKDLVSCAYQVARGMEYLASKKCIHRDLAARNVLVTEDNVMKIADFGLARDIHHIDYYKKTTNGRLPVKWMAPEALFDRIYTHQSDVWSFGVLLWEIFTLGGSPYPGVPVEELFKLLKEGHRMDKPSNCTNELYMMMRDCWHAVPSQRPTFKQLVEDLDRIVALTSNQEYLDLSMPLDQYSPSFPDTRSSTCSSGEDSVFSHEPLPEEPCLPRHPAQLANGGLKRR
Sequence of Serine/threonine-protein kinase MARK1 (Homo sapiens) (Q9P0L2 whole entry, looked up): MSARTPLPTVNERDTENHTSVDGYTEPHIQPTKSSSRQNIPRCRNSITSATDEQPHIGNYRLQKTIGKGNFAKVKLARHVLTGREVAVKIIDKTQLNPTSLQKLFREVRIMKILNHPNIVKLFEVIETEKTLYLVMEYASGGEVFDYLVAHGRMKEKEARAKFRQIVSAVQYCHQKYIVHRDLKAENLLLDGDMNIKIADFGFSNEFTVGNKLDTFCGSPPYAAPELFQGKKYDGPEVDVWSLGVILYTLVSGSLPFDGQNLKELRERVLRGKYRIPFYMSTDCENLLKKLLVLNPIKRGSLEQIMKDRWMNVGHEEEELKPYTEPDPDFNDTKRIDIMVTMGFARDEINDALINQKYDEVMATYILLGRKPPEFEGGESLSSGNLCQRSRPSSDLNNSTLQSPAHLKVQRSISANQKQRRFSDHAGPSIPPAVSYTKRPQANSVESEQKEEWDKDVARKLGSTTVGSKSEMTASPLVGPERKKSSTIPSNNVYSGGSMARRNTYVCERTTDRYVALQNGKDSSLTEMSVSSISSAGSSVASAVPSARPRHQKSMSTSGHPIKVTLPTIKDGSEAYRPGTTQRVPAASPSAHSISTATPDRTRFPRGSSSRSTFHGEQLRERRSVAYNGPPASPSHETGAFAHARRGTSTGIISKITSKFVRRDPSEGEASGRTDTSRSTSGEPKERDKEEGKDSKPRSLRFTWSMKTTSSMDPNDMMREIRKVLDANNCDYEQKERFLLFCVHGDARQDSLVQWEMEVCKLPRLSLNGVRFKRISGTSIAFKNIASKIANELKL

`O=C(NOC[C@H](O)CO)c1ccc(F)c(F)c1Nc1ccc(I)cc1F` gave a % of control [1] of 100%.

`Nc1cnc(N2CCc3cc(S(=O)(=O)Nc4c(F)cc(Cl)cc4F)cc(N4CCCC4=O)c32)nc1` [TP-020n] showed a % of control [2] of 88%.

`CCN(CC)CCCCNc1ncc2cc(-c3cc(OC)cc(OC)c3)c(NC(=O)NC(C)(C)C)nc2n1` was tested, and the % of control [3] was 100%.

Work on `Cc1cc(CN)cc(C)c1-c1ncn(C)c1-c1cncn1C` yielded a dTM [4] of -1.14 K.

Work on `CC[C@@H]1[C@H](F)C(=O)N[C@@H]1COc1nccc2cc(C(N)=O)c(OC)cc12` [ZIMLOVISERTIB] yielded a % of inhibition [5] of -1.4%.

`CN(C)C/C=C/C(=O)Nc1ccc(C(=O)N2CCCC(Nc3ncc(Cl)c(-c4c[nH]c5ccccc45)n3)C2)cc1` (stereo not drawn) gave a % of control [6] of 64%.

`CNC(=O)Nc1ccc(-c2nc(N3CC4CCC(C3)O4)c3cnn(C4CCC5(CC4)OCCO5)c3n2)cc1` showed a % of control [7] of 95%.

`Cn1cc(-n2cnc3c(NCc4nc5cc(Cl)c(Cl)cc5[nH]4)nc(N4CCOCC4)nc32)cn1` gave a % of inhibition [8] of 66.6%.

Reference: ChEMBL document CHEMBL5465560, “Selectivity Literature for EUbOPEN Chemogenomic Library” (2024)
